Assay results as given in patent US20050112573A1, “Method of detecting toxic substance” (priority 2001, published 2005).

Test system: yeast genes (level of expressed mRNA)
Test: DNA chip analysis of expressed mRNA of yeast genes after 2 h culture with a toxic chemical substance
Assay type: cell-based, Saccharomyces cerevisiae S288C
Settings: for The level of expressed mRNA in the presence of chemical substance/ (ratio to absence): transport facilitation protein gene; for The level of expressed mRNA in the presence of chemical substance/: ratio to no chemical; for The level of expressed mRNA in the presence of chemical substance/ (ratio to absence of chemical substance): stress protein genes, DNA chip
Procedure, shortened: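 S. cerevisiae S288C grown at 25° C in YPD; toxicant added at log phase at growth-inhibitory, non-lethal levels for 2 h, untreated cells as control. Poly(A) mRNA reverse-transcribed with Cy3/Cy5-dUTP, hybridized to whole-genome chip at 65° C >12 h; value is fluorescence ratio versus untreated.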

## sodium dodecylbenzosulfonate [(17)]
Yeast gene YDR313C
  The level of expressed mRNA in the presence of chemical substance/in the absence of chemical substance: 1.1
Yeast gene YDR315C
  The level of expressed mRNA in the presence of chemical substance/The level of expressed mRNA in the absence of chemical substance: 1.2
Yeast gene YDR342C
  The level of expressed mRNA in the presence of chemical substance/ (ratio to absence): 1.0
Yeast gene YDR343C
  The level of expressed mRNA in the presence of chemical substance/ (ratio to absence): 1.1
Yeast gene YDR350C
  The level of expressed mRNA in the presence of chemical substance/: 1.4
Yeast gene YDR358W
  The level of expressed mRNA in the presence of chemical substance/The level of expressed mRNA in the absence of chemical substance: 1.9
Yeast gene YDR368W
  The level of expressed mRNA in the presence of chemical substance/in the absence of chemical substance: 1.1
Yeast gene YDR374C
  The level of expressed mRNA in the presence of chemical substance/: 1.0
Yeast gene YDR377W, mitochondria-located protein genes, 2 h culture with chemical
  The level of expressed mRNA in the presence of chemical substance/ (ratio to absence), gene YDR377W: 1.2
Yeast gene YDR387C, ratio of DNA chip fluorescence intensity to that without chemical substance
  The level of expressed mRNA in the presence of chemical substance/ (in its absence), gene YDR387C: 1.2
Yeast gene YDR388W
  The level of expressed mRNA in the presence of chemical substance/The level of expressed mRNA in the absence of chemical substance: 1.2
Yeast gene YDR432W
  The level of expressed mRNA in the presence of chemical substance/The level of expressed mRNA in the absence of chemical substance: 0.7
Yeast gene YDR481C
  The level of expressed mRNA in the presence of chemical substance/The level of expressed mRNA in the absence of chemical substance: 1.2
Yeast gene YDR494W
  The level of expressed mRNA in the presence of chemical substance/: 1.1
Yeast gene YDR497C
  The level of expressed mRNA in the presence of chemical substance/in the absence of chemical substance: 1.6
  The level of expressed mRNA in the presence of chemical substance/ (ratio to absence): 1.6
Yeast gene YDR510W
  The level of expressed mRNA in the presence of chemical substance/The level of expressed mRNA in the absence of chemical substance: 1.1
Yeast gene YDR512C
  The level of expressed mRNA in the presence of chemical substance/: 1.3
Yeast gene YDR516C
  The level of expressed mRNA in the presence of chemical substance/in the absence of chemical substance: 1.1
Yeast gene YDR531W
  The level of expressed mRNA in the presence of chemical substance/: 1.5
Yeast gene YEL027W
  The level of expressed mRNA in the presence of chemical substance/ (ratio to absence): 1.0
Yeast gene YEL039C
  The level of expressed mRNA in the presence of chemical substance/ (ratio to absence of chemical substance): 0.7
Yeast gene YEL041W
  The level of expressed mRNA in the presence of chemical substance/: 1.5
Yeast gene YEL042W
  The level of expressed mRNA in the presence of chemical substance/The level of expressed mRNA in the absence of chemical substance: 0.7
Yeast gene YEL065W
  The level of expressed mRNA in the presence of chemical substance/ (ratio to absence): 0.7
Yeast gene YEL066W
  The level of expressed mRNA in the presence of chemical substance/The level of expressed mRNA in the absence of chemical substance: 1.0
Yeast gene YEL072W
  The level of expressed mRNA in the presence of chemical substance/: 0.8
Yeast gene YER015W, ratio of DNA chip fluorescence intensity to that without chemical substance
  The level of expressed mRNA in the presence of chemical substance/ (in its absence), gene YER015W: 1.6
Yeast gene YER039C
  The level of expressed mRNA in the presence of chemical substance/The level of expressed mRNA in the absence of chemical substance: 1.7
Yeast gene YER045C
  The level of expressed mRNA in the presence of chemical substance/: 1.1
Yeast gene YER053C
  The level of expressed mRNA in the presence of chemical substance/in the absence of chemical substance: 1.2
  The level of expressed mRNA in the presence of chemical substance/ (ratio to absence): 1.2
Yeast gene YER057C
  The level of expressed mRNA in the presence of chemical substance/ (ratio to absence of chemical substance): 1.1
Yeast gene YER091C
  The level of expressed mRNA in the presence of chemical substance/in the absence of chemical substance: 1.2
Yeast gene YER096W
  The level of expressed mRNA in the presence of chemical substance/in the absence of chemical substance: 1.0
Yeast gene YER107C
  The level of expressed mRNA in the presence of chemical substance/The level of expressed mRNA in the absence of chemical substance: 1.1
Yeast gene YER119C
  The level of expressed mRNA in the presence of chemical substance/ (ratio to absence): 1.0
Yeast gene YER124C
  The level of expressed mRNA in the presence of chemical substance/: 0.9
Yeast gene YER130C
  The level of expressed mRNA in the presence of chemical substance/The level of expressed mRNA in the absence of chemical substance: 3.0
Yeast gene YER178W
  The level of expressed mRNA in the presence of chemical substance/in the absence of chemical substance: 1.1
Yeast gene YER181C
  The level of expressed mRNA in the presence of chemical substance/: 0.7
Yeast gene YFL014W
  The level of expressed mRNA in the presence of chemical substance/in the absence of chemical substance: 1.5
Yeast gene YFL028C
  The level of expressed mRNA in the presence of chemical substance/The level of expressed mRNA in the absence of chemical substance: 1.2
Yeast gene YFL030W
  The level of expressed mRNA in the presence of chemical substance/in the absence of chemical substance: 1.0
Yeast gene YFL031W
  The level of expressed mRNA in the presence of chemical substance/in the absence of chemical substance: 1.2
Yeast gene YFL041W
  The level of expressed mRNA in the presence of chemical substance/ (ratio to absence): 1.1
Yeast gene YFL043C
  The level of expressed mRNA in the presence of chemical substance/The level of expressed mRNA in the absence of chemical substance: 1.5
Yeast gene YFL054C
  The level of expressed mRNA in the presence of chemical substance/ (ratio to absence): 1.7
Yeast gene YFL055W
  The level of expressed mRNA in the presence of chemical substance/ (ratio to absence): 1.4
Yeast gene YFL056C
  The level of expressed mRNA in the presence of chemical substance/in the absence of chemical substance: 1.0
Yeast gene YFL057C
  The level of expressed mRNA in the presence of chemical substance/in the absence of chemical substance: 1.6
Yeast gene YFL061W
  The level of expressed mRNA in the presence of chemical substance/in the absence of chemical substance: 1.2
Yeast gene YFR017C
  The level of expressed mRNA in the presence of chemical substance/: 0.9
Yeast gene YFR042W
  The level of expressed mRNA in the presence of chemical substance/: 1.7
Yeast gene YFR045W
  The level of expressed mRNA in the presence of chemical substance/ (ratio to absence): 0.9
Yeast gene YFR046C
  The level of expressed mRNA in the presence of chemical substance/: 1.2
Yeast gene YFR047C
  The level of expressed mRNA in the presence of chemical substance/in the absence of chemical substance: 1.5
Yeast gene YFR053C
  The level of expressed mRNA in the presence of chemical substance/in the absence of chemical substance: 1.4
Yeast gene YGL008C
  The level of expressed mRNA in the presence of chemical substance/ (ratio to absence): 1.1
Yeast gene YGL035C, ratio of DNA chip fluorescence intensity to that without chemical substance
  The level of expressed mRNA in the presence of chemical substance/ (in its absence), gene YGL035C: 0.9
Yeast gene YGL046W
  The level of expressed mRNA in the presence of chemical substance/: 1.5
Yeast gene YGL062W
  The level of expressed mRNA in the presence of chemical substance/in the absence of chemical substance: 1.1
Yeast gene YGL067W
  The level of expressed mRNA in the presence of chemical substance/: 0.9
Yeast gene YGL098W
  The level of expressed mRNA in the presence of chemical substance/: 1.1
Yeast gene YGL104C
  The level of expressed mRNA in the presence of chemical substance/ (ratio to absence): 1.3
Yeast gene YGL114W
  The level of expressed mRNA in the presence of chemical substance/: 0.9
Yeast gene YGL115W, ratio of DNA chip fluorescence intensity to that without chemical substance
  The level of expressed mRNA in the presence of chemical substance/ (in its absence), gene YGL115W: 0.8
Yeast gene YGL115W
  The level of expressed mRNA in the presence of chemical substance/ (ratio to absence of chemical substance): 0.8
Yeast gene YGL117W
  The level of expressed mRNA in the presence of chemical substance/: 2.1
Yeast gene YGL146C
  The level of expressed mRNA in the presence of chemical substance/: 1.0
Yeast gene YGL156W
  The level of expressed mRNA in the presence of chemical substance/in the absence of chemical substance: 1.4
Yeast gene YGL157W
  The level of expressed mRNA in the presence of chemical substance/in the absence of chemical substance: 1.8
Yeast gene YGL158W
  The level of expressed mRNA in the presence of chemical substance/The level of expressed mRNA in the absence of chemical substance: 0.8
Yeast gene YGL167C
  The level of expressed mRNA in the presence of chemical substance/ (ratio to absence): 1.4
Yeast gene YGL184C
  The level of expressed mRNA in the presence of chemical substance/in the absence of chemical substance: 1.0
Yeast gene YGL187C, mitochondria-located protein genes, 2 h culture with chemical
  The level of expressed mRNA in the presence of chemical substance/ (ratio to absence), gene YGL187C: 0.9
Yeast gene YGL193C
  The level of expressed mRNA in the presence of chemical substance/: 1.1
Yeast gene YGL204C
  The level of expressed mRNA in the presence of chemical substance/: 0.9
Yeast gene YGL205W, ratio of DNA chip fluorescence intensity to that without chemical substance
  The level of expressed mRNA in the presence of chemical substance/ (in its absence), gene YGL205W: 3.9
Yeast gene YGL229C
  The level of expressed mRNA in the presence of chemical substance/The level of expressed mRNA in the absence of chemical substance: 1.1
Yeast gene YGL250W
  The level of expressed mRNA in the presence of chemical substance/: 1.2
Yeast gene YGL255W
  The level of expressed mRNA in the presence of chemical substance/ (ratio to absence): 0.6
Yeast gene YGL259W
  The level of expressed mRNA in the presence of chemical substance/: 0.9
Yeast gene YGR011W
  The level of expressed mRNA in the presence of chemical substance/: 0.9
Yeast gene YGR032W
  The level of expressed mRNA in the presence of chemical substance/in the absence of chemical substance: 3.2
Yeast gene YGR042W
  The level of expressed mRNA in the presence of chemical substance/: 1.3
Yeast gene YGR043C
  The level of expressed mRNA in the presence of chemical substance/in the absence of chemical substance: 1.6
Yeast gene YGR053C
  The level of expressed mRNA in the presence of chemical substance/: 1.5
Yeast gene YGR055W
  The level of expressed mRNA in the presence of chemical substance/ (ratio to absence): 0.7
Yeast gene YGR062C, energy system protein genes, 2 h culture with the chemical, ratio to control without chemical
  The level of expressed mRNA in the presence of chemical substance/ in its absence, gene YGR062C: 0.9
Yeast gene YGR062C, mitochondria-located protein genes, 2 h culture with chemical
  The level of expressed mRNA in the presence of chemical substance/ (ratio to absence), gene YGR062C: 0.9
Yeast gene YGR065C
  The level of expressed mRNA in the presence of chemical substance/ (ratio to absence): 0.7
Yeast gene YGR066C
  The level of expressed mRNA in the presence of chemical substance/: 1.0
Yeast gene YGR096W, ratio of DNA chip fluorescence intensity to that without chemical substance
  The level of expressed mRNA in the presence of chemical substance/ (in its absence), gene YGR096W: 0.8
